Reference: patent publication US10752588B2 (The Broad Institute, Inc., priority 2014, dated 2020)

Legend:
[1] = molecular target: T1, human D2R/β-arrestin (Homo sapiens (Human), UniProt P14416); experiment: Gi/cAMP agonist assay (Lance Ultra cAMP, Forskolin); type: cell-based; conditions: CHO-K1 cell line expressing human D2R/β-arrestin
Description: (§1) The assays can be performed using proper detection reagents either prepared using routine methods known in the art or commercially available (e.g., PE Lance Ultra cAMP kit (TRF0263)). Cells are grown to the necessary confluence and then detached. The cells are then centrifuged, washed, resuspended, and seeded into a container (e.g., 384-well plate). The cells are incubated (e.g., at 37° C., 5% CO2) for the appropriate period of time (e.g., 24 hours), before various compounds (e.g., a compound of the invention or a control compound) are added to the cells. Afterwards, cAMP inducing agents (e.g., Forskolin) are added to and incubated with the cells before detection reagents (e.g., a cAMP antibody, such as ULight-anti-cAMP solution) are added to the cells. Read-out (e.g., luminescence, or fluorescence) is detected using standard equipment.
Compounds were pin-transferred (100 nL) to the cells, and incubated for 10 min. at 37° C. […] Eu-cAMP tracer solution (100, PerkinElmer, […] in 17.64 ml kit buffer) and ULight-anti-cAMP solution (100, 120 μL antibody in 17.88 ml kit buffer) was then added to each well.

[2] = molecular target: T1, human D2R/β-arrestin; experiment: cell-based; conditions: β-arrestin Antagonist, CHO-K1 cell line expressing human D2R/β-arrestin; quinpirole used as agonist
[3] = molecular target: T1, human D2R/β-arrestin; experiment: β-Arrestin agonist assay (PathHunter); type: cell-based; conditions: CHO-K1 cell line expressing human D2R/β-arrestin
Description: as §1, with “PathHunter® β-Arrestin Detecting Kit (DiscoveRX)).” for “PE Lance Ultra cAMP kit (TRF0263)).”, “After incubation of the cells” for “Afterwards, cAMP inducing agents (e.g., Forskolin) are added to and incubated”, “compounds,” for “cells before”, “buffer containing Emerald II: Galactor-Star” for “cAMP antibody, such”, “provided DiscoveRX)” for “ULight-anti-cAMP solution)”, “The read-out” for “Read-out”
The detection reagent (9.6 μL, Buffer:Emerald II:Galactor-Star in a 19:5:1 ratio, i.e., 14.06 mL:3.7 mL:0.74 mL=18.5 mL) was then added to the agonist plates.

[4] = molecular target: T1, human D2R/β-arrestin; experiment: cell-based; conditions: cAMP Antagonist, CHO-K1 cell line expressing human D2R/β-arrestin; quinpirole used as agonist

T1 sequence (P14416 whole entry): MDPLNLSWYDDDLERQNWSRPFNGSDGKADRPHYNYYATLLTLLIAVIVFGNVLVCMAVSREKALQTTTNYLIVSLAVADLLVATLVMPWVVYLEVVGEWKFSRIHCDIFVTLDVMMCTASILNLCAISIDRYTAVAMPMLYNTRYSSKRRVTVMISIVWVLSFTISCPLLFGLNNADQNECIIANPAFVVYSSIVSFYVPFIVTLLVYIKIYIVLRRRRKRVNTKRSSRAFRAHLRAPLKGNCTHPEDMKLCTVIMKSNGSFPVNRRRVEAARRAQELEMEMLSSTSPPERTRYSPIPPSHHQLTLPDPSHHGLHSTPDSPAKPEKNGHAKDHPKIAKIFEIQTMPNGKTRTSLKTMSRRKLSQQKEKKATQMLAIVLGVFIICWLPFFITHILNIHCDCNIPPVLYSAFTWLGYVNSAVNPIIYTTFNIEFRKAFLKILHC

EC50 [1] | IC50 [2] | EC50 [3] | IC50 [4] | Structure (SMILES)
> 30000 nM | 100 to 1000 nM | > 30000 nM | 100 to 1000 nM | Fc1ccccc1C(NCC1CCN(CCOc2ccccc2)CC1)c1ccc(Cl)cc1 (single isomer, unassigned) [Compound 81a, 1-(4-chlorophenyl)-1-(2-fluorophenyl)-N-((1-(2-phenoxyethyl)piperidin-4-yl)methyl)methanamine]
< 100 nM | 100 to 1000 nM | > 30000 nM | 100 to 1000 nM | CN(CC1CCN(CCOc2ccccc2F)CC1)C(c1ccc(F)cc1)c1ccccn1 (stereo not drawn) [Compound 75, N-((1-(2-(2-fluorophenoxy)ethyl)piperidin-4-yl)methyl)-1-(4-fluorophenyl)-N-methyl-1-(pyridin-2-yl)methanamine]
> 30000 nM | < 100 nM | > 30000 nM | < 100 nM | CC(C1CCN(CCOc2ccccc2)CC1)N(C)C(c1ccc(Cl)cc1)c1ccccn1 (stereo not drawn) [Compound 97, N-((4-chlorophenyl)(pyridin-2-yl)methyl)-N-methyl-1-(1-(2-phenoxyethyl)piperidin-4-yl)ethan-1-amine]
> 30000 nM | 1000 to 10000 nM | > 30000 nM | 100 to 1000 nM | O=C(NC(c1ccc(Cl)cc1)c1ccccn1)C1CCN(CCOC2CCCCC2)CC1 (stereo not drawn) [Compound 17, N-((4-chlorophenyl) (pyridin-2-yl)methyl)-1-(2-(cyclohexyloxy)ethyl) piperidine-4-carboxamide]
100 to 1000 nM | 1000 to 10000 nM | > 30000 nM | 100 to 1000 nM | COc1cccc(C(c2ccccn2)N(C)CC2CCN(CCOc3ccccc3)CC2)c1 (single isomer, unassigned) [Compound 76a, 1-(3-methoxyphenyl)-N-methyl-N-((1-(2-phenoxyethyl)piperidin-4-yl)methyl)-1-(pyridin-2-yl)methanamine]
10000 to 30000 nM | 1000 to 10000 nM | > 30000 nM | 100 to 1000 nM | O=C(NC(c1cccc(OC(F)(F)F)c1)c1ccccn1)C1CCN(CCOc2ccccc2F)CC1 (single isomer, unassigned) [Compound 93a, 1-(2-(2-fluorophenoxy)ethyl)-N-(pyridin-2-yl(3-(trifluoromethoxy)phenyl)methyl)piperidine-4-carboxamide]
1000 to 10000 nM | 1000 to 10000 nM | > 30000 nM | 1000 to 10000 nM | O=C(NC(c1ccc(Cl)cc1)c1ccccn1)C1CCN(CC2COc3ccccc3O2)CC1 (stereo not drawn) [Compound 140, N-((4-chlorophenyl)(pyridin-2-yl)methyl)-1-((2,3-dihydrobenzo[b][1,4]dioxin-2-yl)methyl)piperidine-4-carboxamide]
> 30000 nM | < 100 nM | > 30000 nM | < 100 nM | Fc1ccccc1OCCN1CCC(CN(CC(F)(F)F)C(c2ccc(Cl)cc2)c2ccccn2)CC1 (single isomer, unassigned) [Compound 136b, N-((4-chlorophenyl)(pyridin-2-yl)methyl)-2,2,2-trifluoro-N-((1-(2-(2-fluorophenoxy)ethyl)piperidin-4-yl)methyl)ethan-1-amine]
100 to 1000 nM | 100 to 1000 nM | > 30000 nM | 100 to 1000 nM | CN(CC1CCN(CCOc2ccccc2)CC1)C(c1ccc(F)cc1)c1ccccn1 (single isomer, unassigned) [Compound 74b, 1-(4-fluorophenyl)-N-methyl-N-((1-(2-phenoxyethyl)piperidin-4-yl)methyl)-1-(pyridin-2-yl)methanamine]
100 to 1000 nM | 1000 to 10000 nM | > 30000 nM | > 30000 nM | COc1ccc(C(NC(=O)C2CCN(CCOc3ccccc3)CC2)c2ccccn2)cc1 (stereo not drawn) [Compound 34]
> 30000 nM | 100 to 1000 nM | > 30000 nM | < 100 nM | O=C(NC(c1ccc(Cl)cc1)c1ccccn1)C1CCN(CCOc2c(F)cccc2F)CC1 (stereo not drawn) [Compound 67, N-((4-chlorophenyl)(pyridin-2-yl)methyl)-1-(2-(2,6-difluorophenoxy)ethyl)piperidine-4-carboxamide]
> 30000 nM | 1000 to 10000 nM | > 30000 nM | 100 to 1000 nM | O=C(NC(c1ccc(Cl)cc1)c1ccccn1)C1CCN(CCOc2cccc(Cl)c2)CC1 (single isomer, unassigned) [Compound 1a, 1-(2-(3-chlorophenoxy)ethyl)-N-((4-chlorophenyl)(pyridin-2-yl)methyl)piperidine-4-carboxamide]
> 30000 nM | 100 to 1000 nM | > 30000 nM | 100 to 1000 nM | O=C(NC(c1ccc(Cl)cc1)c1ccccn1)C1CCN(CCOc2ccccc2)CC1 (single isomer, unassigned) [Compound 63b, N-((4-chlorophenyl)(pyridin-2-yl)methyl)-1-(2-phenoxyethyl)piperidine-4-carboxamide]
< 100 nM | 100 to 1000 nM | > 30000 nM | 1000 to 10000 nM | COc1cccc(C(c2ccccn2)N(C)CC2CCN(CCOc3ccccc3F)CC2)c1 (stereo not drawn) [Compound 77, N-((1-(2-(2-fluorophenoxy)ethyl)piperidin-4-yl)methyl)-1-(3-methoxyphenyl)-N-methyl-1-(pyridin-2-yl)methanamine]
> 30000 nM | < 100 nM | > 30000 nM | < 100 nM | O=C(NC(c1ccc(F)cc1)c1ccccc1F)C1CCN(CCOc2ccccc2Cl)CC1 (stereo not drawn) [Compound 85, 1-(2-(2-chlorophenoxy)ethyl)-N-((2-fluorophenyl)(4-fluorophenyl)methyl)piperidine-4-carboxamide]
> 30000 nM | 1000 to 10000 nM | > 30000 nM | 1000 to 10000 nM | c1ccc(OCCN2CCC(CNC(c3ccc4c(c3)OCO4)c3ccccn3)CC2)cc1 (single isomer, unassigned) [Compound 102a, 1-(benzo[d][1,3]dioxol-5-yl)-N-((1-(2-phenoxyethyl)piperidin-4-yl)methyl)-1-(pyridin-2-yl)methanamine]
> 30000 nM | < 100 nM | > 30000 nM | < 100 nM | CN(CC1CCN(CCOc2ccccc2C(F)(F)F)CC1)C(c1ccc(Cl)cc1)c1ccccn1 (stereo not drawn) [Compound 73]
> 30000 nM | 1000 to 10000 nM | > 30000 nM | 1000 to 10000 nM | Fc1ccc(OCCN2CCC(CNC(c3ccc(Cl)cc3)c3ccccn3)CC2)cc1 (stereo not drawn) [Compound 132, 1-(4-chlorophenyl)-N-((1-(2-(4-fluorophenoxy)ethyl)piperidin-4-yl)methyl)-1-(pyridin-2-yl)methanamine]
> 30000 nM | 1000 to 10000 nM | > 30000 nM | 100 to 1000 nM | O=C(NC(c1ccc(Cl)cc1)c1ccccn1)C1CCN(CCCCOc2ccccc2)CC1 (stereo not drawn) [Compound 110]

Structure (SMILES) | EC50 [1] | IC50 [2] | EC50 [3] | IC50 [4]
O=C(NC(c1cccc(OC(F)(F)F)c1)c1ccccn1)C1CCN(CCOc2ccccc2)CC1 (stereo not drawn) [Compound 118, 1-(2-phenoxyethyl)-N-(pyridin-2-yl(3-(trifluoromethoxy)phenyl)methyl) piperidine-4-carboxamide] | < 100 nM | 1000 to 10000 nM | > 30000 nM | > 30000 nM
COc1cccc(C(NC(=O)C2CCN(CCOc3ccccc3F)CC2)c2ccccn2)c1 (stereo not drawn) [Compound 22, 1-(2-(2-fluorophenoxy)ethyl)-N-((3-methoxyphenyl)(pyridin-2-yl)methyl) piperidine-4-carboxamide] | > 30000 nM | 100 to 1000 nM | > 30000 nM | 100 to 1000 nM
